1 substance from patent US20180296630A1, “METHODS AND COMPOSITIONS FOR PREVENTING OR TREATING OPHTHALMIC CONDITIONS” (Stealth BioTherapeutics Corp, priority 2012, published 2018) can be followed below.

The subject of data set [1] is primary human retinal pigment epithelial (RPE) cells. Kind of data set: Viability of primary RPE cells incubated with peptide alone (MTT). Type of data set: cell-based. The following applies: different concentrations of peptide alone; 24 h. As for the experimental part: Primary retinal pigment epithelial (RPE) cells were cultured to test the effects of the aromatic-cationic peptides of the invention in preventing or reducing oxidative damage in these cells. Methods useful for the study of primary retinal pigment epithelial cells have been described. See, Dunn et al., ARPE-19, A Human Retinal Pigment Epithelial Cell Line with Differentiated Properties, Experimental Eye Research, 1996, 62(2): 155-170. […] Primary cultured human RPE cells were incubated with different concentrations of D-Arg-2′,6′-Dmt-Lys-Phe-NH2 alone for a period of 24 h, and cell viability was determined by a MTT assay (FIG. 22).

Data set [2] has as its system human retinal epithelial cells (HREC). Briefly: Mitochondrial membrane potential of high-glucose HRECs (JC-1, flow cytometry). Type of data set: cell-based. As to conditions: 100 nM co-treatment with high glucose; 24 or 48 hours. As for the experimental part: Assessment of D-Arg-2′,6′-Dmt-Lys-Phe-NH2 as a protectant against mitochondrial potential loss of HRECs treated with high-glucose was examined. To determine if a mitochondrial-mediated pathway was important in the protective effect of D-Arg-2′,6′-Dmt-Lys-Phe-NH2 against high glucose-induced cell death, ΔΨm was measured by flow cytometry. After treating the HRECs with high-glucose without D-Arg-2′,6′-Dmt-Lys-Phe-NH2 for 24 or 48 hours, a rapid loss of mitochondrial membrane potential was detected by JC-1 fluorescent probe as indicated by a significant decrease in the ratio of red to green fluorescence observed in the high glucose group.
For orientation: A flow cytometer gives signals particle by particle.

In data set [3] the test system is STZ and HFD/STZ diabetic rats. Kind of data set: Lens epithelium changes in diabetic SD rats. Type of data set: in vivo, Sprague-Dawley rat. As to conditions: STZ rat model and HFD/STZ rat model. As for the experimental part: (§1) A rat model of diabetes was established by combination of 6-week HFD and low dose of STZ (30 mg/kg) injection or a single high dose of STZ (65 mg/kg) in SD rats. See generally, K. Srinivasan, B. Viswanad, Lydia Asrat, C. L. Kaul and P. Ramarao, Combination of high-fat diet-fed and low-dose streptozotocin-treated rat: A model for type 2 diabetes and pharmacological screening, Pharmacological Research, 52(4): 313-320, 2005. Rats of the same batch fed with normal chow (NRC) were used as a control.
The effect of the aromatic cationic peptides on lens epithelium in the SD rat model was investigated. Administration of D-Arg-2′,6′-Dmt-Lys-Phe-NH2 reduced epithelial cellular changes in both STZ rat model (FIG. 8) and HFD/STZ rat model (FIG. 9).

Data set [4] concerns GTM cells. Briefly: Morphology of GTM cells exposed to H2O2 (inverted phase contrast microscopy). Type of data set: cell-based, human. As to conditions: peptide prior to H2O2, concentration-dependent and time-dependent. The source says: The morphology of GTM cells was investigated when those cells were exposed to D-Arg-2′,6′-Dmt-Lys-Phe-NH2 prior to administration of hydrogen peroxide. […] That is, hydrogen peroxide mediated cell loss and rounding was diminished in cells exposed to D-Arg-2′,6′-Dmt-Lys-Phe-NH2 peptide. The mitochondrial membrane potential (Δψm) of HTM and GTM cells was also investigated when those cells were exposed to D-Arg-2′,6′-Dmt-Lys-Phe-NH2 prior to administration of hydrogen peroxide. The mitochondrial membrane potential was measured using confocal microscopy of cells labeled with tetramethylrhodamine methyl ester (TMRM, 500 nM×30 min) (FIG. 19-21). […] As such, D-Arg-2′,6′-Dmt-Lys-Phe-NH2 provides a protective effect against oxidative stress in GTM cells.

The subject of data set [5] is CNV mouse model. Kind of data set: Laser-induced choroidal neovascularization (CNV) mouse model. The following applies: one week after laser. Type of data set: in vivo, C57BL/6 male mice. From the text:
CNV were induced in the eye with laser burns. Methods useful in the present studies have been described by Reich, Mol Vis 2003; 9:210-216.
Briefly, five to six-week-old C57BL/6 male mice were anesthetized with chloral hydrate and the pupils were dilated with tropicamide. With a coverslip used as a contact lens, four laser spots (532 nm, 260 mw, 0.01 s, 50 μm; Novus Spectra, Lumenis, USA) were applied to the fundus in a circle around the optic disc in the right eye. Daily intraperitoneal injections of 1 mg/kg, 9 mg/kg D-Arg-2′,6′-Dmt-Lys-Phe-NH2 (D-Arg-2′,6′-Dmt-Lys-Phe-NH2) or vehicle were started the day prior to laser photocoagulation.
After one week, mice were deeply anaesthetized and perfused through the left ventricle with 1 ml (50 mg/ml) of PB S-buffered fluorescein-dextran. Eyes were enucleated and fixed in 4% paraformaldehyde for 2 h. The eyes were sectioned at the equator, and the anterior half and retina were removed. The posterior eye segment containing the sclera and choroid was dissected into quarters by four to five radial cuts and mounted on a slide. All flatmounts were examined by a fluorescence microscope (AxioCam MRC; Carl Zeiss). […]
There were 48 locations of neovascularization in each group. The area of neovascularization was calculated using IMAGE-PROPLUS6.0 software. […]

Data set [6] relates to STZ and HFD/STZ diabetic rats. Kind of data set: Retinal microvessel changes in diabetic SD rats. It counts as in vivo, Sprague-Dawley rat. As to conditions: STZ or HFD/STZ rats. As for the experimental part: as §1
The effect of the aromatic-cationic peptides on retinal microvessels in the SD rat model was investigated (FIGS. 11-12). Administration of D-Arg-2′,6′-Dmt-Lys-Phe-NH2 reduced retinal microvasular changes observed in STZ or HFD/STZ rats.

Data set [7] relates to 661W cells. Kind of data set: Mitochondrial viability of 661W cells exposed to tBHP (JC-1 assay). Type of data set: cell-based, mouse. As to conditions: 100 nmol/L. On the procedure:
The potential of D-Arg-2′,6′-Dmt-Lys-Phe-NH2 (D-Arg-2′,6′-Dmt-Lys-Phe-NH2) to protect against loss of mitochondrial viability induced by tBHP, 100 nmol/L D-Arg-2′,6′-Dmt-Lys-Phe-NH2 was administered to the cultures of 661w cells.

Data set [8] deals with cytochrome c release in HRECs. Briefly: Cytochrome c release from mitochondria of HRECs (confocal microscopy, Western blot). Type of data set: cell-based, human. The following applies: 30 mmol/L glucose; 24 h or 48 h. The source says: Glucose (30 mmol/L) induced cytochrome c release from the mitochondria of HRECs. Fixed HRECs were immunolabeled with a cytochrome c antibody and a mitochondrial specific protein antibody (HSP60).
Background: In western blotting, separated proteins are transferred to a membrane and probed.

Data set [9] deals with caspase-3 in HRECs. Kind of data set: Caspase-3 protein expression in high glucose-treated HRECs (Western blot). It counts as cell-based, human. As to conditions: 30 mM glucose co-treatment; 24 h and 48 h; p<0.05. On the procedure:
The level of cleaved caspase-3 protein expression was measured by Western blot (FIG. 5A). When HRECs were exposed to 30 mM glucose for 24 h and 48 h, the level of caspase-3 expression increased dramatically.

With D-Arg-2′,6′-Dmt-Lys-Phe-NH2, the “cell viability (MTT assay)” value in data set [1] is on record as “did not adversely effect these cells”. Besides, the “Δψm (ratio of red to green JC-1 fluorescence)” value in [2] is on record as “remained virtually unchanged”. For the same substance, the “epithelial cellular changes of the lens epithelium” value in [3] is recorded as “reduced”. Moreover, the “hydrogen peroxide-mediated morphological changes (cell loss and rounding)” value in data set [4] is listed as “protects cells from hydrogen peroxide-mediated morphological changes”. Besides, the area of neovascularization in data set [5] (1 mg/kg daily intraperitoneal) came out at 0.0068±0.0025; in data set [5] (9 mg/kg daily intraperitoneal), 0.0067±0. In addition, the retinal microvascular changes result in [6] is on record as “reduced”. In addition, the “mitochondrial viability (JC-1 assay)” value in data set [7] is recorded as “significantly enhanced”. Moreover, the “translocation of cytochrome c between mitochondria and cytoplasm” value in data set [8] is listed as “decrease”. In addition, the caspase-3 protein level entry in data set [9] is “marked decrease”.
